# Test results reported in US9974782B2, “Phosphodiesterase inhibitors and uses thereof” (THE TRUSTEES OF COLUMBIA UNIVERSITY IN THE CITY OF NEW YORK, priority 2008, dated 2018).
# Entries after “also recorded” stand apart in the source; their conditions may differ. Like-named read-outs stand apart in the source and are kept apart here.
# Tests used:
# [1] = tested on: CA1 region of hippocampal slices from APP/PS1 and WT mice; experiment: Electrophysiological analysis (BST, LTP) of hippocampal slices perfused with inhibitor; type: cell-based, mouse
# [2] = tested on: APP/PS1 mice; experiment: Contextual and cued fear conditioning; type: in vivo, mouse; conditions: for effect on contextual fear memory in words: APP/PS1 (transgenic) mice
# Experimental: Given that sildenafil reversed LTP deficits in 3-month-old APP/PS1, it was then tested whether the inhibitor reversed the cognitive defects in these animals. As reported above sildenafil offers the advantage of crossing the BBB and therefore it can be easily utilized in behavioural experiments. Three-month-old mice were divided into 4 groups: APP/PS1 with sildenafil, APP/PS1 with vehicle, WT with sildenafil and WT with vehicle. Sildenafil and vehicle control solutions were administered i.p. at a concentration of 3 mg/kg. This concentration was chosen based on previous studies showing that these amounts of sildenafil raise hippocampal cGMP levels and improve memory in aged rats^A6 and mice^A7 independent of vascular effects^A6. The effects of acute administration of sildenafil was first examined on fear-conditioning learning, a type of learning that is impaired in several AD mouse models^A14 and depends on hippocampus and amygdala. The hippocampus is indispensable for contextual fear conditioning^A15, a form of associative learning in which mice must associate a neutral stimulus with an aversive one. Mice were trained to associate neutral stimuli with an aversive one. They were placed in a new context (fear conditioning box), exposed to a white noise cue (CS) paired with a mild foot shock (US), and injected with sildenafil immediately after the training. Fear learning was assessed twenty-four hours later by measuring freezing behaviour—the absence of all movement except for that necessitated by breathing—in response to representation of the context or of the auditory cue within a completely different context. No difference was found in the freezing behaviour among the four groups of mice before the training phase (FIG. 2A). Twenty-four hours later, a decrease in the freezing behaviour of vehicle-treated APP/PS1 mice compared with that of vehicle-treated WT littermates in the analysis of the contextual learning was observed (FIG. 2A). […] Fear conditioning, a hippocampus-independent task A^15, was next tested and no difference in freezing among the 4 groups was found, as APP/PS1 mice are known to have a selective hippocampus-dependent impairment in associative learning^A14.
# Sildenafil was tested to determine whether a brief course of treatment can provide long term benefits. The PDE5 inhibitor was examined to see if it maintains its protective effect against synaptic dysfunction and memory loss. In these experiments, both APP/PS1 and WT mice of 3 months of age were injected intraperitoneally with 3 mg/kg/day sildenafil for 3 weeks, then the treatment was stopped for 9-12 weeks prior to testing. The mice were next subjected to training for contextual learning. […] There were no differences between the 4 groups in the cued conditioning test.
# Three-month-old APP/PS1 and WT mice were separated into 4 groups: APP/PS1 mice treated with vehicle, APP/PS1 mice treated with PDE inhibitor, WT mice treated with vehicle, and WT mice treated with PDE inhibitor. […] In the remaining experiments, sildenafil was injected via i.p. The drug was administered either acutely or for 1 course of 3 week treatment. For assessment of the short-term effects of sildenafil, the drug was given at a concentration of 3 mg/kg immediately after the training. This dose yields concentrations of ˜2.5 μM cGMP in the hippocampus^A53. For assessment of long-term effects, sildenafil was given daily by i.p. injection at a concentration of 3 mg/kg for 3 weeks and then treatment was stopped for 9-12 weeks prior to behavioral testing. Contextual and cued fear conditioning was performed for 3 days. Radial-arm water-maze (RAWM) was performed for 3 weeks. Then, the animals were sacrificed for electrophysiological recordings. To decide the time of administration of sildenafil in the acute experiments, a series of studies was performed in which the inhibitor was injected i.p. at 5 min before the electric shock or at 5 min before the first acquisition trial with the radial arm water maze. […]
# [3] = tested on: APP/PS1 mice; experiment: Radial-arm water maze (spatial working memory); type: in vivo, mouse; conditions: APP/PS1 (transgenic) mice
# From the text: Next, the effect of treatment with sildenafil was examined on spatial working memory, a type of short-term memory that can be studied with the radial-arm water maze test. […] Mice were required to learn and memorize the location of a hidden platform in one of the arms of a maze with respect to spatial cues. […] However, daily injections of sildenafil for 3 weeks immediately after the 4th acquisition trial ameliorated the behavioural performance of APP/PS1 mice (FIG. 2B).
# The effects of one course of 3-week treatment with sildenafil on spatial working memory were next tested using the radial-arm water-maze task. There was a difference between the number of errors made by vehicle-treated APP/PS1 and WT mice (FIG. 3B)^A12. Administration of sildenafil for 3 weeks, 9-12 weeks prior to the testing, reduced the gap between the two groups without affecting performance of the WT animals (FIG. 3B).
# Three-month-old APP/PS1 and WT mice were separated into 4 groups: APP/PS1 mice treated with vehicle, APP/PS1 mice treated with PDE inhibitor, WT mice treated with vehicle, and WT mice treated with PDE inhibitor. […] In the remaining experiments, sildenafil was injected via i.p. The drug was administered either acutely or for 1 course of 3 week treatment. For assessment of the short-term effects of sildenafil, the drug was given at a concentration of 3 mg/kg immediately after the training. This dose yields concentrations of ˜2.5 μM cGMP in the hippocampus^A53. For assessment of long-term effects, sildenafil was given daily by i.p. injection at a concentration of 3 mg/kg for 3 weeks and then treatment was stopped for 9-12 weeks prior to behavioral testing. Contextual and cued fear conditioning was performed for 3 days. Radial-arm water-maze (RAWM) was performed for 3 weeks. Then, the animals were sacrificed for electrophysiological recordings. To decide the time of administration of sildenafil in the acute experiments, a series of studies was performed in which the inhibitor was injected i.p. at 5 min before the electric shock or at 5 min before the first acquisition trial with the radial arm water maze. […] Thus, all the behavioral experiments on the acute effects of sildenafil reported in the result section were performed with injection after the training.
# This is a type of short-term memory that can be studied with the RAWM test^12. Briefly, the RAWM consisted of a white tank (120 cm diameter) filled with water (24-25° C.) and made opaque by the addition of non-toxic white paint. Within the tank walls were positioned so as to produce six arms, radiating from a central area. Spatial cues were presented on the walls of the testing room. At the end of one of the arms was positioned a clear 10 cm submerged (1.5 cm) platform that remained in the same location for every trial in one day, but was moved about randomly from day to day. On each trial the mouse started the task from a different randomly chosen arm. […] Each trial lasted 1 min and errors were counted each time the mouse entered the wrong arm or needed more than 20 sec to reach the platform. After each error the mouse was pulled back to the start arm for that trial. After 4 consecutive acquisition trials, the mouse was placed in its home cage for 30 min, then returned to the maze and administered a 5th retention trial. Testing was considered completed as the WT mice made the same number of errors at the 4th and 5th trial. The scores for each mouse on the last three days of testing were averaged and used for statistical analysis.
# [4] = in vivo, cited from earlier work
# [5] = target: PDE5 (Homo sapiens, UniProt O76074); conditions: cited from earlier work
# [6] = tested on: PDE1; conditions: cited from earlier work
# [7] = tested on: PDE6; conditions: cited from earlier work
# [8] = target: PDE2 (Homo sapiens, UniProt O00408); conditions: cited from earlier work
# [9] = tested on: PDE3; conditions: cited from earlier work
# [10] = tested on: PDE4; conditions: cited from earlier work
# [11] = tested on: isolated rabbit corpus cavernosum; conditions: read-out: EC50, relaxant effect; cited from earlier work
# [12] = tested on: human Aβ40 and Aβ42 levels; conditions: rolipram, earlier study; cited from earlier work
# [13] = rat, in vivo; cited from earlier work
# [14] = WT slices, 120 min after tetanus, sildenafil 50 nM, tadalafil 50 nM, IC354 1 μM
# [15] = WT slices, sildenafil or tadalafil 50 nM
# [16] = slices of 3-month-old APP/PS1 mice, 120 min after tetanus, 10 min perfusion (sildenafil 50 nM, tadalafil 50 nM, IC354 1 μM)
# [17] = 3 month-old WT, sildenafil 3 mg/Kg or tadalafil 1 mg/Kg i.p.
# Chain of PDE2 (O00408 whole entry): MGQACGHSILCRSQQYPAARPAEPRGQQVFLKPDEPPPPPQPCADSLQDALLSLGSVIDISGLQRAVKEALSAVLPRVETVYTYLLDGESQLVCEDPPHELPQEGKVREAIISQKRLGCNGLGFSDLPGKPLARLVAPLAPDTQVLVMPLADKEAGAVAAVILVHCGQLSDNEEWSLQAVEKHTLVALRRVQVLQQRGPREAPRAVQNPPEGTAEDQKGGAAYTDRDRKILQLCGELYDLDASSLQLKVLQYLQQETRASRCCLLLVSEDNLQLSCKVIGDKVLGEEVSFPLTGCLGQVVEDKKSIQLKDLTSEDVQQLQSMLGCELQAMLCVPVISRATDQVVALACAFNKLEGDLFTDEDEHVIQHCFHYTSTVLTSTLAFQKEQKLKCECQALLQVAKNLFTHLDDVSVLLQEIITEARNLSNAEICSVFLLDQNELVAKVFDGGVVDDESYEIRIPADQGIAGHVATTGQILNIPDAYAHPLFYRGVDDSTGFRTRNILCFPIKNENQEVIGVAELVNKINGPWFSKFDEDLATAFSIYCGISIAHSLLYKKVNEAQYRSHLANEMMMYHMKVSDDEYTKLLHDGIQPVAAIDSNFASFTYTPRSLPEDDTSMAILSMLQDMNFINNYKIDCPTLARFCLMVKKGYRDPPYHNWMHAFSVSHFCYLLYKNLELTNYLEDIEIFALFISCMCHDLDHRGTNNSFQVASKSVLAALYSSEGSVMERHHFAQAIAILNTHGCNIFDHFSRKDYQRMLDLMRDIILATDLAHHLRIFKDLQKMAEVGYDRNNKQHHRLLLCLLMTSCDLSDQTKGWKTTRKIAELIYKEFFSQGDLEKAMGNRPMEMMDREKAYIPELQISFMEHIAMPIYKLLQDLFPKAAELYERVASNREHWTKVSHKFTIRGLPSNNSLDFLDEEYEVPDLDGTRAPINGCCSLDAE
smiles,measurement,setting,value
"CN1CC(=O)N2C(Cc3c([nH]c4ccccc34)C2c2ccc3c(c2)OCO3)C1=O (stereo not drawn) [tadalafil, 6-benzo[1,3]dioxol-5-yl-2-methyl-2,3,6,7,12,12a-hexahydro-pyrazino[1′,2′:1,6]pyrido[3,4-b]indole-1,4-dione]","LTP, fEPSP slope as % of baseline",[1]; [14],232.45±21.92%
same,level of LTP as % of vehicle-treated WT slices,[1]; [14],~106%
same,basal synaptic responses without tetanus as % of vehicle-treated WT slices,[1]; [15],~98%
same,"basal synaptic responses without tetanus, fEPSP % of baseline",[1]; [15],103.65±1.63%
same,effect on LTP impairment in words,"[1]; slices from APP/PS1 (transgenic) mice, 10 min prior to tetanus",reverses LTP impairment
same,"LTP, fEPSP slope as % of baseline",[1]; [16],209.49±13.89%
same,level of LTP as % of vehicle-treated WT littermates,[1]; [16],~96%
same,contextual freezing time,"[2]; 3 month-old APP/PS1, sildenafil 3 mg/Kg or tadalafil 1 mg/Kg i.p., 24 hrs after training",18.76±3.89%
same,contextual freezing time as % of vehicle-treated APP/PS1 mice,"[2]; 3 month-old APP/PS1, tadalafil 1 mg/Kg i.p.",~122%
same,contextual freezing as % of vehicle-treated WT mice,[2]; [17],~85%
same,contextual freezing time,[2]; [17],28.29±3.30%
same,effect on contextual fear memory in words,[2],does not modify contextual fear conditioning
same,effect on contextual fear memory in words,[2]; listed as Tadalafil,did not improve associative learning
same,effect on spatial working memory (RAWM) in words,[3],does not improve spatial working memory
same,effect on spatial working memory (RAWM) in words,[3]; listed as Tadalafil,did not improve
same,ability to cross the BBB in words,[4],unlikely to cross it; also recorded: does not cross it
same,ability to cross the BBB in words,[4]; listed as Tadalafil,does not cross it
COC(=O)c1c(-c2cc(OC)c(OC)c(OC)c2)c2ccc(OCc3ccccn3)cc2c(=O)n1-c1ccc(N)cc1.O=S(=O)(O)O [T1032],IC50,[5]; read-out: IC50 against PDE5,< 1 nM
same,selectivity ratio for PDE1 (PDE1/PDE5),[6],1300
same,selectivity ratio for PDE6 (PDE6/PDE5),[7],28
same,PDE2/PDE5,[8],> 10 000
same,PDE3/PDE5,[9],> 10 000
same,PDE4/PDE5,[10],4700
same,EC50,[11],7.9 nM
COc1ccc(C2CNC(=O)C2)cc1OC1CCCC1 (stereo not drawn) [rolipram],effect on Aβ in brains of APP/PS1 mice in words,[12],did not affect Aβ concentration; also recorded: did not affect Aβ load
Cc1cc(-c2ccccc2)nnc1NCCN1CCOCC1 [minaprine],brain/blood ratio,[13],> 2
"CCOC(=O)c1cc2c(cn1)[nH]c1ccccc12 [beta-CCE, Ethyl beta-carboline-3-carboxylate]",PDE5 inhibition in words,[5],"weak, non-selective PDE5 inhibitor"
